Read-outs that look alike come from different tables or passages of the source.
Columns and labels:
[1] = test system: MiaPaca-2 (expressing KRAS G12C mutant); assay: Proliferation Assay (Cell Viability Assay); format: cell-based; conditions: Homo sapiens, MIA PaCa-2
Outline: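 After 2–4 days' exposure at 37 °C, 5% CO2 to a single 10 μM final concentration or a dilution series (IC50), percent proliferation inhibition was derived from CellTiter 96 Aqueous One viability readings. The medium contained 0.3% DMSO and 10% FBS. KRAS G12C MiaPaca-2 cells were plated at 2000–5000/well the day before.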

TNF-alpha = TNF-alpha Quantification Assay (ELISA), LPS-stimulated RAW 264.7; format: cell-based; conditions: Mus musculus, RAW264.7; at 10 μM; read-out: TNFα: % inh.
IL6 = assay: IL-6 Quantification Assay (ELISA), LPS-stimulated RAW 264.7; format: cell-based; set-up: inhibition: dose or concentration left out as unconfirmed; conditions: Mus musculus, RAW264.7; read-out: IL-6: % inh.
Akt phosphorylation = assay: Akt Phosphorylation Assay (western blot), Panc-1; format: cell-based, human; conditions: at 10 μM, * = activation
Outline: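 Phospho-Akt (Ser473) was measured by western blot in lysates of KRas G12D Panc-1 cells exposed to test compound for 6 h at 37 °C, either at 10 μM final with 0.3% DMSO or as serial dilutions for IC50. One format used overnight 0.5% FBS starvation followed by a 15 min pulse of 1.5 ng/ml EGF. The other used cells in 10% FBS with no stimulation.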

[2] = read-out: Proliferation in MiaPaca-2: IC50

| Compound | IC50 [1, 2] | IC50 ([1]; Proliferation assay, MiaPaca-2, read-out: MiaPaca-2 IC50 (nM) Pancreatic) | inhibition at 10 µM (TNF-alpha) | inhibition (IL6) | % inh of Akt phosphorylation in Panc-1 (Akt phosphorylation) |
| --- | --- | --- | --- | --- | --- |
| Cc1c(-c2ccn(C(C)C)n2)cn2nc(-c3nccn3C)nc(Nc3cc(C4CC4)n[nH]3)c12 [Compound 68, N-(3-Cyclopropyl-1H-pyrazol-5-yl)-6-(1-isopropyl-1H-pyrazol-3-yl)-5-methyl-2-(1-methyl-1H-imidazol-2-yl)pyrrolo[2,1-f][1,2,4]triazin-4-amine] | < 150 nM | – | 25 to 49% | 1 to 24% | D* (85-100% activation) |
| COCCO[C@H]1C[C@H](Nc2nc(-c3nccn3C)nn3cc(-c4cccc(OC)c4F)c(-c4ccccc4)c23)C1 [Compound 44, 6-(2-Fluoro-3-methoxyphenyl)-N-((1r,3r)-3-(2-methoxyethoxy)cyclobutyl)-2-(1-methyl-1H-imidazol-2-yl)-5-phenylpyrrolo[2,1-f][1,2,4]triazin-4-amine] | > 1000 nM | – | 1 to 24% | 25 to 49% | B (26-49% inhibition) |
| Cc1c(-c2ccn(C(C)C)n2)cn2nc(-c3nccn3C)nc(Nc3ccncc3)c12 [Compound 52, 6-(1-Isopropyl-1H-pyrazol-3-yl)-5-methyl-2-(1-methyl-1H-imidazol-2-yl)-N-(pyridin-4-yl)pyrrolo[2,1-f][1,2,4]triazin-4-amine] | > 1000 nM | – | 1 to 24% | 0% | B (26-49% inhibition) |
| COc1cccc(Nc2nc(-c3nccn3C)nn3cc(-c4ccn(C(C)C)n4)c(-c4ccccc4)c23)n1 [Compound 23, 6-(1-Isopropyl-1H-pyrazol-3-yl)-N-(6-methoxypyridin-2-yl)-2-(1-methyl-1H-imidazol-2-yl)-5-phenylpyrrolo[2,1-f][1,2,4]triazin-4-amine] | > 1000 nM | – | 75 to 100% | 75 to 100% | D (85-100% inhibition) |

Now from value to compound, other results behind:

| IC50 [1, 2] | IC50 ([1]; Proliferation assay, MiaPaca-2, read-out: MiaPaca-2 IC50 (nM) Pancreatic) | Compound | inhibition at 10 µM (TNF-alpha) | inhibition (IL6) | % inh of Akt phosphorylation in Panc-1 (Akt phosphorylation) |
| --- | --- | --- | --- | --- | --- |
| > 1000 nM | – | COc1cccc(-c2cn3nc(-c4nccn4C)nc(O)c3c2-c2ccccc2)c1Cl [Compound 28, 6-(2-Chloro-3-methoxyphenyl)-2-(1-methyl-1H-imidazol-2-yl)-5-phenylpyrrolo[2,1-f][1,2,4]triazin-4-ol] | 1 to 24% | 25 to 49% | A* (1-25% activation) |
| 510 to 1000 nM | – | COc1cccc(-c2cn3nc(-c4nccn4C)nc(N[C@H]4C[C@H](OC)C4)c3c2-c2ccccc2)c1F [Compound 42, 6-(2-Fluoro-3-methoxyphenyl)-N-((1r,3r)-3-methoxycyclobutyl)-2-(1-methyl-1H-imidazol-2-yl)-5-phenylpyrrolo[2,1-f][1,2,4]triazin-4-amine] | 75 to 100% | 75 to 100% | D (85-100% inhibition) |
| < 150 nM | – | Cc1c(-c2ccn(C)n2)cn2nc(-c3nccn3C)nc(Nc3cc(-c4ccccn4)[nH]n3)c12 [Compound 265, 5-Methyl-2-(1-methyl-1H-imidazol-2-yl)-6-(1-methyl-1H-pyrazol-3-yl)-N-(5-(pyridin-2-yl)-1H-pyrazol-3-yl)pyrrolo[2,1-f][1,2,4]triazin-4-amine] | 25 to 49% | 75 to 100% | D* (85-100% activation) |
| > 1000 nM | – | COc1cccc(-c2cn3nc(-c4nccn4C)nc(N[C@H]4C[C@@H](OC)C4)c3c2-c2ccccc2)c1Cl [Compound 31, 6-(2-Chloro-3-methoxyphenyl)-N-((1s,3s)-3-methoxycyclobutyl)-2-(1-methyl-1H-imidazol-2-yl)-5-phenylpyrrolo[2,1-f][1,2,4]triazin-4-amine] | 75 to 100% | 75 to 100% | D (85-100% inhibition) |
| < 150 nM | 1 to 10 nM | Cc1[nH]nc(Nc2nc(-c3nccn3C)nn3cc(-c4ccn(C)n4)c(C)c23)c1C [Compound 267, N-(4,5-Dimethyl-1H-pyrazol-3-yl)-5-methyl-2-(1-methyl-1H-imidazol-2-yl)-6-(1-methyl-1H-pyrazol-3-yl)pyrrolo[2,1-f][1,2,4]triazin-4-amine] | 1 to 24% | 50 to 74% | D* (85-100% activation) |

— patent publication US12459951B2, “Compounds that interact with RAS superfamily proteins for treatment of cancers, inflammatory diseases, rasopathies, and fibrotic disease” (SHY Therapeutics, LLC, priority 2022, dated 2025)
